These results are taken from article PMC6440977 (Nature Communications, 2019).

The experiment concerns the target T. brucei PKAR-PKAC1 holoenzyme (Trypanosoma brucei, UniProt Q9GU80). Kind of experiment: biochemical. The class given is biochemical.

By EC50 is commonly meant the concentration at which the effect is half-maximal. The low end stands for an effect from little substance, the high end for a need for much substance. The molecule `N#Cc1cn([C@@H]2O[C@H](CO)[C@@H](O)[C@H]2O)c2ncnc(O)c12` [7-CN-7-C-Ino, 7-Cyano-7-deazainosine] had an EC50 of 6.5 ± 4.6 nM.
